Assay results published in paper PMC6225228, “Design, Synthesis and Evaluation of N-pyrazinylbenzamides as Potential Antimycobacterial Agents” (Molecules : A Journal of Synthetic Chemistry and Natural …, 2018).
Converted amounts (≈) assume the structure as drawn. Read-outs that look alike come from different tables or passages of the source.

Key:
[1] = system: Mycobacterium tuberculosis H37Rv CNCTC My 331/88 (ATCC 27294); assay: Antimycobacterial microdilution MABA, M. tuberculosis; format: cell-based; conditions: for Mtb H37Rv ATCC 27294 MIC: Middlebrook 7H9 with OADC growth supplement, pH = 6.6, MABA; for MIC: Mycobacterium tuberculosis, read-out: Mtb H37Rv ATCC 27294 MIC, Middlebrook 7H9 with OADC growth supplement, pH = 6.6, MABA
[2] = system: M. kansasii CNCTC My 235/80 (ATCC 12478); assay: Antimycobacterial microdilution MABA, M. kansasii; format: cell-based, Mycobacterium kansasii; conditions: for MIC: Mycobacterium kansasii, ATCC12478, pH 6.6, read-out: M. kans. ATCC 12478 MIC, Middlebrook 7H9 with OADC, pH 6.6, MABA
[3] = system: M. avium ssp. avium CNCTC My 80/72 (ATCC 15769); assay: Antimycobacterial microdilution MABA, M. avium; format: cell-based, Mycobacterium avium; conditions: for MIC: Mycobacterium avium, ATCC15769, pH 6.6, read-out: M. avium ATCC 15769 MIC
[4] = system: Mycobacterium smegmatis CCM 4622 (ATCC 607); assay: Antimycobacterial microdilution, M. smegmatis; format: cell-based; conditions: Mycolicibacterium smegmatis, read-out: M. smeg. ATCC 607 MIC
[5] = system: Staphylococcus aureus CCM 4516/08; assay: Antibacterial microdilution broth, SA; format: cell-based
[6] = system: Staphylococcus aureus H 5996/08 methicillin resistant; assay: microbe, parasite or virus in culture; format: cell-based; conditions: for MIC: Staphylococcus aureus, MRSA, read-out: MIC MRSA
[7] = system: Staphylococcus epidermidis H 6966/08; assay: Antibacterial microdilution broth, SE; format: cell-based; conditions: read-out: MIC SE
[8] = system: Enterococcus sp. J 14365/08; assay: Antibacterial microdilution broth, EF; format: cell-based; conditions: Enterococcus, read-out: MIC EF
[9] = system: Escherichia coli CCM 4517; assay: Antibacterial microdilution broth, EC; format: cell-based; conditions: Escherichia coli, read-out: MIC EC
[10] = system: Pseudomonas aeruginosa CCM 1961; assay: Antibacterial microdilution broth, PA; format: cell-based; conditions: Pseudomonas aeruginosa, read-out: MIC PA
[11] = system: Candida albicans ATCC 44859; assay: Antifungal microdilution broth, CA; format: cell-based; conditions: Candida albicans, read-out: MIC CA
[12] = system: Candida tropicalis 156; assay: Antifungal microdilution broth, CT; format: cell-based; conditions: read-out: MIC CT
[13] = system: Candida krusei E28; assay: Antifungal microdilution broth, CK; format: cell-based; conditions: Pichia kudriavzevii, read-out: MIC CK
[14] = system: Candida glabrata 20/I; assay: Antifungal microdilution broth, CG; format: cell-based; conditions: Nakaseomyces glabratus, 20/I, read-out: MIC CG
[15] = system: Trichosporon asahii 1188; assay: Antifungal microdilution broth, TA; format: cell-based; conditions: read-out: MIC TA
[16] = system: Aspergillus fumigatus 231; assay: Antifungal microdilution broth, AF; format: cell-based; conditions: read-out: MIC AF
[17] = system: Lichtheimia corymbifera 272; assay: Antifungal microdilution broth, LC; format: cell-based; conditions: read-out: MIC LC
[18] = system: Trichophyton interdigitale 445; assay: Antifungal microdilution broth, TI; format: cell-based; conditions: read-out: MIC TI
[19] = Middlebrook 7H9 with OADC, pH 6.6, MABA
[20] = Staphylococcus aureus, CCM4516, 24 h, read-out: MIC SA, 24 h
[21] = Staphylococcus aureus, CCM4516, 48 h, read-out: MIC SA, 48 h
[22] = Staphylococcus epidermidis, H6966/08, 24 h
[23] = Staphylococcus epidermidis, H6966/08, 48 h
[24] = Trichosporon asahii, 1188, 24 h
[25] = Trichosporon asahii, 1188, 48 h
[26] = Aspergillus fumigatus, 231, 24 h
[27] = Aspergillus fumigatus, 231, 48 h
[28] = Lichtheimia corymbifera, 272, 24 h
[29] = Lichtheimia corymbifera, 272, 48 h
[30] = Trichophyton interdigitale, 445, 72 h
[31] = Trichophyton interdigitale, 445, 120 h

SMILES: CC(=O)Oc1cccc(C(=O)Nc2cnc(Cl)cn2)c1 [Compound 2c-Ac]
- Mtb H37Rv ATCC 27294 MIC [1]: >100 µg/mL
- MIC [1]: > 100 µg/mL
- M. kans. ATCC 12478 MIC [2, 19]: >100 µg/mL
- MIC [2]: > 100 µg/mL
- M. avium ATCC 15769 MIC [3, 19]: >100 µg/mL
- MIC [3]: > 100 µg/mL
- MIC [4]: 250 µg/mL (≈ 857 µM)
- MIC ([5]; 24 h, read-out: MIC SA): >125 µM
- MIC ([5]; 48 h, read-out: MIC SA): >125 µM
- MIC [5, 20]: > 125 µM
- MIC [5, 21]: > 125 µM
- MIC MRSA ([6]; 24 h): >125 µM
- MIC MRSA ([6]; 48 h): >125 µM
- MIC ([6]; 24 h): > 125 µM
- MIC ([6]; 48 h): > 125 µM
- MIC ([7]; 24 h): >125 µM
- MIC ([7]; 48 h): >125 µM
- MIC [7, 22]: > 125 µM
- MIC [7, 23]: > 125 µM
- MIC ([8]; SP.J14365/08, 24 h): > 125 µM
- MIC ([8]; SP.J14365/08, 48 h): > 125 µM
- MIC ([9]; CCM4517, 24 h): > 125 µM
- MIC ([9]; CCM4517, 48 h): > 125 µM
- MIC ([10]; CCM1961, 72 h): > 125 µM
- MIC ([10]; CCM1961, 120 h): > 125 µM
- MIC ([11]; ATCC44859, 24 h): > 125 µM
- MIC ([11]; ATCC44859, 48 h): > 125 µM
- MIC ([12]; Candida tropicalis, 156, 24 h): > 125 µM
- MIC ([12]; Candida tropicalis, 156, 48 h): > 125 µM
- MIC ([13]; E28, 24 h): > 125 µM
- MIC ([13]; E28, 48 h): > 125 µM
- MIC ([14]; 24 h): > 125 µM
- MIC ([14]; 48 h): > 125 µM
- MIC [15, 24]: > 125 µM
- MIC [15, 25]: > 125 µM
- MIC [16, 26]: > 125 µM
- MIC [16, 27]: > 125 µM
- MIC [17, 28]: > 125 µM
- MIC [17, 29]: > 125 µM
- MIC [18, 30]: > 125 µM
- MIC [18, 31]: > 125 µM
- melting point: 184.1 to 184.6 °C

SMILES: O=C(Nc1cnc(Cl)cn1)c1ccc(Cl)cc1 [Compound 2l]
- MIC [1]: > 100 µg/mL
- MIC [2]: > 100 µg/mL
- MIC [3]: > 100 µg/mL
- MIC [4]: ≥ 500 µg/mL
- MIC [5, 20]: > 125 µM
- MIC [5, 21]: > 125 µM
- MIC ([5]; Staphylococcus aureus, CCM4516, read-out: MIC against S. aureus, time not stated): > 125 µM
- MIC ([6]; 24 h): > 125 µM
- MIC ([6]; 48 h): > 125 µM
- MIC [7, 22]: > 125 µM
- MIC [7, 23]: > 125 µM
- MIC ([8]; SP.J14365/08, 24 h): > 125 µM
- MIC ([8]; SP.J14365/08, 48 h): > 125 µM
- MIC ([9]; CCM4517, 24 h): > 125 µM
- MIC ([9]; CCM4517, 48 h): > 125 µM
- MIC ([10]; CCM1961, 72 h): > 125 µM
- MIC ([10]; CCM1961, 120 h): > 125 µM
- MIC ([11]; ATCC44859, 24 h): > 125 µM
- MIC ([11]; ATCC44859, 48 h): > 125 µM
- MIC ([12]; Candida tropicalis, 156, 24 h): > 125 µM
- MIC ([12]; Candida tropicalis, 156, 48 h): > 125 µM
- MIC ([13]; E28, 24 h): > 125 µM
- MIC ([13]; E28, 48 h): > 125 µM
- MIC ([14]; 24 h): > 125 µM
- MIC ([14]; 48 h): > 125 µM
- MIC [15, 24]: > 125 µM
- MIC [15, 25]: > 125 µM
- MIC [16, 26]: > 125 µM
- MIC [16, 27]: > 125 µM
- MIC [17, 28]: > 125 µM
- MIC [17, 29]: > 125 µM
- MIC [18, 30]: > 125 µM
- MIC [18, 31]: > 125 µM
- melting point: 225 to 226.3 °C

SMILES: CC(=O)Oc1ccc(C(=O)Nc2cnccn2)cc1 [Compound 1d-Ac]
- MIC [1]: > 100 µg/mL
- MIC [2]: > 100 µg/mL
- MIC [3]: > 100 µg/mL
- MIC [4]: ≥ 500 µg/mL
- MIC [5, 20]: > 500 µM
- MIC [5, 21]: > 500 µM
- MIC ([6]; 24 h): > 500 µM
- MIC ([6]; 48 h): > 500 µM
- MIC [7, 22]: > 500 µM
- MIC [7, 23]: > 500 µM
- MIC ([8]; SP.J14365/08, 24 h): > 500 µM
- MIC ([8]; SP.J14365/08, 48 h): > 500 µM
- MIC ([9]; CCM4517, 24 h): > 500 µM
- MIC ([9]; CCM4517, 48 h): > 500 µM
- MIC ([10]; CCM1961, 72 h): > 500 µM
- MIC ([10]; CCM1961, 120 h): > 500 µM
- MIC ([11]; ATCC44859, 24 h): > 500 µM
- MIC ([11]; ATCC44859, 48 h): > 500 µM
- MIC ([12]; Candida tropicalis, 156, 24 h): > 500 µM
- MIC ([12]; Candida tropicalis, 156, 48 h): > 500 µM
- MIC ([13]; E28, 24 h): > 500 µM
- MIC ([13]; E28, 48 h): > 500 µM
- MIC ([14]; 24 h): > 500 µM
- MIC ([14]; 48 h): > 500 µM
- MIC [15, 24]: > 500 µM
- MIC [15, 25]: > 500 µM
- MIC [16, 26]: > 500 µM
- MIC [16, 27]: > 500 µM
- MIC [17, 28]: > 500 µM
- MIC [17, 29]: > 500 µM
- MIC [18, 30]: > 500 µM
- MIC [18, 31]: > 500 µM
- melting point: 147.4 to 149.4 °C

SMILES: O=C(Nc1cnc(Cl)cn1)c1ccccc1 [Compound 2a]
- Mtb H37Rv ATCC 27294 MIC [1]: >100 µg/mL
- MIC [1]: > 100 µg/mL
- MIC [2]: > 100 µg/mL
- MIC [3]: > 100 µg/mL
- MIC [4]: ≥ 500 µg/mL
- MIC [5, 20]: 250 µM (≈ 58.4 µg/mL)
- MIC [5, 21]: 250 µM (≈ 58.4 µg/mL)
- MIC ([6]; 24 h): 250 µM (≈ 58.4 µg/mL)
- MIC ([6]; 48 h): 250 µM (≈ 58.4 µg/mL)
- MIC [7, 22]: 500 µM (≈ 117 µg/mL)
- MIC [7, 23]: 500 µM (≈ 117 µg/mL)
- MIC ([8]; SP.J14365/08, 24 h): > 500 µM
- MIC ([8]; SP.J14365/08, 48 h): > 500 µM
- MIC ([9]; CCM4517, 24 h): > 500 µM
- MIC ([9]; CCM4517, 48 h): > 500 µM
- MIC ([10]; CCM1961, 72 h): > 500 µM
- MIC ([10]; CCM1961, 120 h): > 500 µM
- MIC ([11]; ATCC44859, 24 h): > 500 µM
- MIC ([11]; ATCC44859, 48 h): > 500 µM
- MIC ([12]; Candida tropicalis, 156, 24 h): > 500 µM
- MIC ([12]; Candida tropicalis, 156, 48 h): > 500 µM
- MIC ([13]; E28, 24 h): > 500 µM
- MIC ([13]; E28, 48 h): > 500 µM
- MIC ([14]; 24 h): > 500 µM
- MIC ([14]; 48 h): > 500 µM
- MIC [15, 24]: > 500 µM
- MIC [15, 25]: > 500 µM
- MIC [16, 26]: > 500 µM
- MIC [16, 27]: > 500 µM
- MIC [17, 28]: > 500 µM
- MIC [17, 29]: > 500 µM
- MIC [18, 30]: > 500 µM
- MIC [18, 31]: > 500 µM
- melting point: 162.5 to 163.5 °C
